Values quoted from earlier work as cited in patent US12594250B2, “Prevention of accumulated tolerance to stimulant medication for the treatment of ADHD” (priority 2021, dated 2026).
Read-outs that look alike come from different tables or passages of the source.

How the values were obtained:
children with ADHD [1] = conditions: for duration of effect / action / efficacy: after one administration
[2] = oral administration; for time to maximum serum concentration (C-max): immediate-release bolus
children with ADHD [3] = system: children with ADHD
DA Transporter (DAT) = target: T1, DA Transporter (DAT) (Homo sapiens, UniProt Q01959); conditions: adults with ADHD, a year of consistent medication use
T1 construct: dopamine transporter density was increased in specific dopamine regions of the brain; host or cells: living brain (caudate nucleus, nucleus accumbens) of adults with ADHD; endogenous protein
T1 sequence (Q01959 whole entry): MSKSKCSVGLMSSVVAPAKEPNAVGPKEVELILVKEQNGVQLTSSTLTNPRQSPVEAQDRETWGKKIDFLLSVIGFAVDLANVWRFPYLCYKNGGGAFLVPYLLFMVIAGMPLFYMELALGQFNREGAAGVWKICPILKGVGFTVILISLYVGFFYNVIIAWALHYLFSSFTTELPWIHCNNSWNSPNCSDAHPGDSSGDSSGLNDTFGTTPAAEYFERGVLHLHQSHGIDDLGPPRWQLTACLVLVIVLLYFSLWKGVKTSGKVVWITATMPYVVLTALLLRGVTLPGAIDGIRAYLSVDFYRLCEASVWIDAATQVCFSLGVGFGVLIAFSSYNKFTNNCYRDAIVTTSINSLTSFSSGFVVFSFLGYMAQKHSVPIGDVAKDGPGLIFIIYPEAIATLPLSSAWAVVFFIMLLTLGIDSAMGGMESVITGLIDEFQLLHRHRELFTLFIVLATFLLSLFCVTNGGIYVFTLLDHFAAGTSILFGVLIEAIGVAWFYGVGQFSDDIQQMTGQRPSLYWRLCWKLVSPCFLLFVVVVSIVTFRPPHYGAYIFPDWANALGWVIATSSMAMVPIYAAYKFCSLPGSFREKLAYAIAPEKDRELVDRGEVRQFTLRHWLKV

ADHD = conditions: high dose of IR formulation

In the case of NC1=NC(=O)C(c2ccccc2)O1 (centres unmarked) [Cylert, pemoline], the “duration of effect / action / efficacy” value (children with ADHD [1]) is given as 6 h.

In the case of CC(N)Cc1ccccc1 (centres unmarked) [amphetamine], the “duration of constant effect” value (children with ADHD [1]; twice-a-day (BID) dosing of immediate-release) is given as 10 to 12 h and the “time to maximum serum concentration (C-max)” value [2] is given as “about 2 hours”.

For COC(=O)C(c1ccccc1)C1CCCCN1 (centres unmarked) [methylphenidate], the “duration of effect / action / efficacy” value (children with ADHD [1]; listed as Ritalin) is listed as 3 h, the “onset of clinical effect (reduction in symptoms)” value (children with ADHD [1]; after oral administration) is listed as “within an hour” and the “effect (PD response) across the day” value (children with ADHD [3]; ascending PK profile) is listed as “increasing effect”. For the same molecule, the “effect (PD response) across the day” value (children with ADHD [3]; flat PK profile) was “decreasing effect”, the DAT density (DA Transporter (DAT)) was “increases DAT density” and the “time to maximum serum concentration (C-max)” value [2] was “about 1 hours”. For the same molecule, the “half-life (T-½)” value ([2]; serum concentration) was 2 to 3 h.

In the case of NC(=O)C[S+]([O-])C(c1ccccc1)c1ccccc1 (centres unmarked) [modafinil], the serious side effects (ADHD) is given as “a few cases were suspected of serious dermatologic side effects”.
